Holding throughout (test): NCI anticancer screen, dose series, 48 h
For assay [1], the system named is NCI-H522 lung.
For assay [2], the system named is UO-31 renal.
Assay [3] concerns HCT-15 colon.
Assay [4] relates to HOP-62 NSCLC.
In assay [5] the test system is SNB-19 CNS.
The subject of assay [6] is HCC-2998 colon.
In assay [7] the test system is A498 renal.
Assay [8] concerns SW-620 colon.

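These data come from cells grown in 96-well plates and exposed to compound for 48 hours at five concentrations. GI50 is the concentration that inhibits growth by half. At the TGI there is no net growth.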

Turning to `O=[N+]([O-])/C=C/c1ccc(Cl)cc1[N+](=O)[O-]`, the GI50 in assay [1] was 1.5 µM; in assay [2], 1.55 µM; in assay [3] it was 2.2 µM; in assay [4] it was 3.04 µM; in assay [5], 3.32 µM; in assay [6], 1.85 µM. For the same compound, the GI50 in assay [7] was 14.5 µM. In addition, the TGI in assay [1] turned out to be 3.3 µM; in assay [2], 3.82 µM; in assay [3], 5.72 µM; in assay [4], 13.4 µM; in assay [5] it was 14 µM; in assay [6], 3.41 µM. The same compound had a TGI in assay [7] of 27.8 µM.
Turning to `CSC1=Nc2c(c(C)c(-c3ccccc3)n2COC(CO)CO)C2=NC(=O)CC(C)N12` (stereo not drawn), the GI50 in assay [1] is > 100 µM; in assay [2], > 100 µM; in assay [3], > 100 µM; in assay [4], 98.1 µM; in assay [8] it was > 100 µM; in assay [5], > 100 µM. In addition, the GI50 in assay [6] and in assay [7] was > 100 µM throughout. Also, the TGI in assay [1], in assay [2], in assay [3], in assay [4], in assay [8] and in assay [5] was > 100 µM in each case. In addition, the TGI in assay [6] and in assay [7] was > 100 µM each time.
Take `COc1ccc(/C=C/C(=O)c2cc3c(N)c(C(=O)Nc4ccc(OC)cc4)sc3nc2C)cc1`: the GI50 in assay [1] was 0.178 µM; in assay [2], 0.988 µM; in assay [3], 0.391 µM; in assay [4], 0.214 µM; in assay [8], 0.543 µM; in assay [5], 0.746 µM. The results for the GI50 in assay [6] and in assay [7] were 0.174 µM and 0.108 µM, respectively. In addition, the TGI in assay [1] was > 26.5 µM; in assay [2], > 50 µM; in assay [3] it was > 50 µM; in assay [4] it was > 50 µM; in assay [8] it was > 50 µM; in assay [5], > 41.3 µM. The compound further had a TGI in assay [7] of 0.41 µM.
As for `CC(=O)Oc1cc2cnc3c4cc(OC(C)=O)c(OC(C)=O)cc4ccc3c2cc1OC(C)=O`, the GI50 in assay [1] is 0.392 µM; in assay [2], 0.472 µM; in assay [3] it was 1.06 µM; in assay [4], 1.86 µM; in assay [8], 0.952 µM; in assay [5] it was 0.594 µM. Moreover, the GI50 in assay [6] is 3.74 µM; in assay [7], 0.443 µM. Also, the TGI is 4.56 µM in assay [1]; > 100 µM in assay [2]; > 100 µM in assay [3]; 59.4 µM in assay [4]; > 100 µM in assay [8]; 65.9 µM in assay [5]. For the same compound, the TGI in assay [6] was > 100 µM; in assay [7], 1.84 µM.
Consider `COc1ccc(-c2csc(Nc3cccc(-c4csc(C)n4)c3)n2)cc1`, for which the GI50 in assay [1] was 1.23 µM; in assay [2] it was 2.54 µM; in assay [3] it was 0.226 µM; in assay [4], 2.81 µM; in assay [8] it was 0.441 µM; in assay [5], 1.04 µM. In addition, the GI50 in assay [7] was 12.6 µM. The TGI in assay [1] was > 16.4 µM; in assay [2], > 50 µM; in assay [3] it was > 47.7 µM; in assay [4], > 33.8 µM; in assay [8] it was > 50 µM; in assay [5], > 50 µM. This compound also came in with a TGI in assay [7] of 49.2 µM.
Take `C=C1CC[C@H]2C(C)=CC[C@H]3C(=C)C(=O)O[C@@H]3[C@@H]12`: the TGI in assay [1], in assay [2], in assay [3], in assay [8], in assay [5] and in assay [6] was > 100 µM in each case. In assay [7], the TGI was > 100 µM.
Consider `COc1ccc(-c2c(N)noc2-c2cc(OC)c3c(c2)OCCO3)cc1`, for which the GI50 in assay [2] is < 0.024 µM; in assay [3] it was < 0.01 µM; in assay [4], < 0.0123 µM; in assay [8], < 0.01 µM; in assay [5] it was 0.0277 µM; in assay [6], 0.0173 µM. Further, the GI50 in assay [7] was < 0.01 µM. For the same compound, the TGI in assay [2] was 56.9 µM; in assay [3], > 100 µM; in assay [4], > 54.8 µM; in assay [8], > 100 µM; in assay [5], > 100 µM; in assay [6], 0.902 µM. The compound further returned a TGI in assay [7] of 0.303 µM.
For `O=NNc1ccc(S(=O)(=O)c2ccc3ccccc3c2)cn1`, the TGI in assay [1] is > 100 µM; in assay [2], 58.4 µM; in assay [3], > 100 µM; in assay [4] it was > 100 µM; in assay [8] it was > 100 µM; in assay [5], > 100 µM. Further, in assay [7], the TGI is > 100 µM.
Consider `Nc1ncc2ncn(C3CCC(CO)O3)c2n1` (stereo not drawn), for which the TGI in assay [1], in assay [2], in assay [3], in assay [4], in assay [8] and in assay [5] was > 100 µM throughout. For the same compound, the TGI in assay [7] is > 100 µM.
For the compound `Nn1c(-c2ccc(Cl)cc2)nc2c(-c3ccc(Cl)cc3)nc3ccc(Cl)cc3c2c1=O`, the GI50 is 20.9 µM in assay [1]; 16.9 µM in assay [2]; > 100 µM in assay [3]; 22.4 µM in assay [4]; 6.06 µM in assay [8]; 9.06 µM in assay [5]. Further, the GI50 in assay [7] was 36 µM. Besides, the TGI is > 100 µM in assay [1]; > 100 µM in assay [2]; > 100 µM in assay [3]; 57.7 µM in assay [4]; > 100 µM in assay [8]; 47.7 µM in assay [5]. In assay [7], the TGI came to 75.7 µM.
As to `CCOC(=O)[C@@H]1CSC(CC)=C(C(=O)O)N1`, the GI50 in assay [1], in assay [2], in assay [3], in assay [4], in assay [8] and in assay [5] was > 100 µM throughout. In addition, the GI50 in assay [6] is > 100 µM. In addition, the TGI in assay [1], in assay [2], in assay [3], in assay [4], in assay [8] and in assay [5] was > 100 µM in each case. For the same compound, the TGI in assay [6] was > 100 µM.
